From patent US7994209B2, “3-phenoxymethylpyrrolidine compounds” (Theravance, Inc., priority 2009, dated 2011)

Molecular target: T1, hSERT (Homo sapiens, UniProt P31645)
Test: hSERT neurotransmitter uptake assay (3H-5-HT), Assay 2
Format: cell-based
Design: expressed in transfected cells; host or cells: HEK-293
Conditions: serotonin reuptake inhibition, 3H-5-HT uptake, HEK-293 hSERT cells (values without asterisk); read-out: SERT pIC50 (converted)
Method: (§1) Cells were harvested by centrifugation at 1100 rpm for 5 minutes, washed once by resuspension in PBS, then centrifuged. The supernatant was discarded and the cell pellet resuspended, by gentle trituration, in room temperature Krebs-Ringer bicarbonate buffer containing HEPES (10 mM), CaCl2 (2.2 mM), ascorbic acid (200 μM) and pargyline (200 μM), pH 7.4.
(§2) Test compounds were incubated for 30 minutes at 37° C. with the respective cells, prior to addition of radiolabeled neurotransmitter, ^3H-5-HT (20 nM final concentration), ^3H-NE (50 nM final concentration) or ^3H-DA (100 nM final concentration).

T1 sequence (P31645 whole entry): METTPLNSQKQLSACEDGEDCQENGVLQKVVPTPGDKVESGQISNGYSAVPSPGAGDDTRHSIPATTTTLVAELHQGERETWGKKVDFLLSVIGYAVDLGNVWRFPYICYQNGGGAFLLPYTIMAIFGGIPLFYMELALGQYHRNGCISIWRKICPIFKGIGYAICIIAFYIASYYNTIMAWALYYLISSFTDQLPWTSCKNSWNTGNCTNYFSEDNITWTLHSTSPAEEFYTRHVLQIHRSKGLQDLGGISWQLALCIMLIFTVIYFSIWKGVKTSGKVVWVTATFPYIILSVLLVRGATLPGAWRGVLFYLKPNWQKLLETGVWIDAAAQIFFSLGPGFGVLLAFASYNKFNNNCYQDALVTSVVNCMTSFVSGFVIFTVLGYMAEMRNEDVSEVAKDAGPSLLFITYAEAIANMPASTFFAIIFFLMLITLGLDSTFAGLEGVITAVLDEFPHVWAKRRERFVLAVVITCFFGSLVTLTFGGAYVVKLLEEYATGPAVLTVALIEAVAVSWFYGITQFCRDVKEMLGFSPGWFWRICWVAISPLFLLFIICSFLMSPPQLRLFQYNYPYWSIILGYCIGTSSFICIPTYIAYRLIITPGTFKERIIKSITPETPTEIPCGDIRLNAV

Row | Compound | IC50
1 | CC[C@H](Oc1c(C)cc(Cl)cc1Cl)[C@H]1CCNC1 [Example 2-43, (S)-3-[(S)-1-(2,4-Dichloro-6-methylphenoxy)propyl]pyrrolidine] | ≤ 100 nM
2 | CC[C@H](Oc1c(F)cc(Cl)cc1F)[C@H]1CCNC1 [Example 2-48, (S)-3-[(S)-1-(4-Chloro-2,6-difluorophenoxy)propyl]pyrrolidine] | ≤ 10 nM
3 | CC[C@H](Oc1c(F)cc(F)cc1F)[C@H]1CCNC1 [Example 2-55, (S)-3-[(S)-1-(2,4,6-Trifluorophenoxy)propyl]pyrrolidine] | ≤ 100 nM
4 | CC[C@H](Oc1ccc(Cl)cc1C)[C@H]1CCNC1 [Example 2-58, (S)-3-[(S)-1-(4-Chloro-2-methylphenoxy)propyl]pyrrolidine] | ≤ 10 nM
5 | CC[C@H](Oc1ccccc1C)[C@H]1CCNC1 [Example 2-62, (S)-3-((S)-1-o-Tolyloxypropyl)pyrrolidine] | ≤ 100 nM
6 | CCc1cc(F)ccc1O[C@@H](CC)[C@H]1CCNC1 [Example 2-66, (S)-3-[(S)-1-(2-Ethyl-4-fluorophenoxy)propyl]pyrrolidine] | ≤ 10 nM

Second part, the compound after the results:

Row | IC50 | Compound
7 | ≤ 100 nM | CC[C@H](Oc1c(F)ccc(F)c1Cl)[C@H]1CCNC1 [Example 2-40, (S)-3-[(S)-1-(2-Chloro-3,6-difluorophenoxy)propyl]pyrrolidine]
8 | ≤ 100 nM | CC[C@@H](Oc1c(F)ccc(F)c1Cl)[C@H]1CCNC1 [Example 2-41, (S)-3-[(R)-1-(2-Chloro-3,6-difluorophenoxy)propyl]pyrrolidine]
9 | ≤ 10 nM | CC[C@H](Oc1ccc(Cl)c(F)c1Cl)[C@H]1CCNC1 [Example 2-42, (S)-3-[(S)-1-(2,4-Dichloro-3-fluorophenoxy)propyl]pyrrolidine]
10 | ≤ 10 nM | CC[C@H](Oc1c(F)ccc(OC)c1Cl)[C@H]1CCNC1 [Example 2-44, (S)-3-[(S)-1-(2-Chloro-6-fluoro-3-methoxyphenoxy)propyl]pyrrolidine]
11 | ≤ 100 nM | CC[C@H](Oc1ccc(Cl)cc1F)[C@H]1CCNC1 [Example 2-47, (S)-3-[(S)-1-(4-Chloro-2-fluorophenoxy)propyl]pyrrolidine]
12 | ≤ 100 nM | CC[C@H](Oc1c(F)ccc(Cl)c1F)[C@H]1CCNC1 [Example 2-52, (S)-3-[(S)-1-(3-Chloro-2,6-difluorophenoxy)propyl]pyrrolidine]
13 | ≤ 100 nM | CC[C@H](Oc1ccc(F)c(OC)c1F)[C@H]1CCNC1 [Example 2-57, (S)-3-[(S)-1-(2,4-Difluoro-3-methoxyphenoxy)propyl]pyrrolidine]
14 | ≤ 100 nM | CC[C@@H](Oc1ccc(Cl)cc1C)[C@@H]1CCNC1 [Example 2-60, (R)-3-[(R)-1-(4-Chloro-2-methylphenoxy)propyl]pyrrolidine]

Molecular target: T2, hNET (Homo sapiens, UniProt P23975)
T2 sequence (P23975 whole entry): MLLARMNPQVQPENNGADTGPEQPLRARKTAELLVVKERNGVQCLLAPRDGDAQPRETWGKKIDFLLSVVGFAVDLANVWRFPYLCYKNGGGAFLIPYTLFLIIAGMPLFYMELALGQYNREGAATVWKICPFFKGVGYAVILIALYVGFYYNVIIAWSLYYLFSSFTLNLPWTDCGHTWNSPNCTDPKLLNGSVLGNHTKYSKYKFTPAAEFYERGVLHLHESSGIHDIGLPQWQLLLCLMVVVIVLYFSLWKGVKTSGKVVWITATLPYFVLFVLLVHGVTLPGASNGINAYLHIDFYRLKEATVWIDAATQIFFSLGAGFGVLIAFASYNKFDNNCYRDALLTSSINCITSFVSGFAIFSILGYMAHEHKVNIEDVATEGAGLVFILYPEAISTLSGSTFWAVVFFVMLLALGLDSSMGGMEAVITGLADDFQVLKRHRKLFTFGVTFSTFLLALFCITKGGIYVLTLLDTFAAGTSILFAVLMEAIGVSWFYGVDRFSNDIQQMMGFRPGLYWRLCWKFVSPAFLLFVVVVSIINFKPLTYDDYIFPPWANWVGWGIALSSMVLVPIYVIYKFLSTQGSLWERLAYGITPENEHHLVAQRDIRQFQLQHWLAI
Test: hNET neurotransmitter uptake assay (3H-NE), Assay 2
Format: cell-based
Design: expressed in transfected cells; host or cells: HEK-293
Conditions: norepinephrine reuptake inhibition, 3H-NE uptake, HEK-293 hNET cells (values without asterisk); read-out: NET pIC50 (converted)
Method: as §1, §2

Row | Compound | IC50
15 | CC[C@H](Oc1c(C)cc(Cl)cc1Cl)[C@H]1CCNC1 [Example 2-43, (S)-3-[(S)-1-(2,4-Dichloro-6-methylphenoxy)propyl]pyrrolidine] | ≤ 10 nM
16 | CC[C@H](Oc1c(F)cc(Cl)cc1F)[C@H]1CCNC1 [Example 2-48, (S)-3-[(S)-1-(4-Chloro-2,6-difluorophenoxy)propyl]pyrrolidine] | ≤ 10 nM
17 | CC[C@H](Oc1c(F)cc(F)cc1F)[C@H]1CCNC1 [Example 2-55, (S)-3-[(S)-1-(2,4,6-Trifluorophenoxy)propyl]pyrrolidine] | ≤ 10 nM
18 | CC[C@H](Oc1ccc(Cl)cc1C)[C@H]1CCNC1 [Example 2-58, (S)-3-[(S)-1-(4-Chloro-2-methylphenoxy)propyl]pyrrolidine] | ≤ 10 nM
19 | CC[C@H](Oc1ccccc1C)[C@H]1CCNC1 [Example 2-62, (S)-3-((S)-1-o-Tolyloxypropyl)pyrrolidine] | ≤ 10 nM
20 | CCc1cc(F)ccc1O[C@@H](CC)[C@H]1CCNC1 [Example 2-66, (S)-3-[(S)-1-(2-Ethyl-4-fluorophenoxy)propyl]pyrrolidine] | ≤ 10 nM

The remaining lines, values ahead:

Row | IC50 | Compound
21 | ≤ 10 nM | CC[C@H](Oc1c(F)ccc(F)c1Cl)[C@H]1CCNC1 [Example 2-40, (S)-3-[(S)-1-(2-Chloro-3,6-difluorophenoxy)propyl]pyrrolidine]
22 | ≤ 10 nM | CC[C@@H](Oc1c(F)ccc(F)c1Cl)[C@H]1CCNC1 [Example 2-41, (S)-3-[(R)-1-(2-Chloro-3,6-difluorophenoxy)propyl]pyrrolidine]
23 | ≤ 10 nM | CC[C@H](Oc1ccc(Cl)c(F)c1Cl)[C@H]1CCNC1 [Example 2-42, (S)-3-[(S)-1-(2,4-Dichloro-3-fluorophenoxy)propyl]pyrrolidine]
24 | ≤ 10 nM | CC[C@H](Oc1c(F)ccc(OC)c1Cl)[C@H]1CCNC1 [Example 2-44, (S)-3-[(S)-1-(2-Chloro-6-fluoro-3-methoxyphenoxy)propyl]pyrrolidine]
25 | ≤ 10 nM | CC[C@H](Oc1ccc(Cl)cc1F)[C@H]1CCNC1 [Example 2-47, (S)-3-[(S)-1-(4-Chloro-2-fluorophenoxy)propyl]pyrrolidine]
26 | ≤ 10 nM | CC[C@H](Oc1c(F)ccc(Cl)c1F)[C@H]1CCNC1 [Example 2-52, (S)-3-[(S)-1-(3-Chloro-2,6-difluorophenoxy)propyl]pyrrolidine]
27 | ≤ 100 nM | CC[C@H](Oc1ccc(F)c(OC)c1F)[C@H]1CCNC1 [Example 2-57, (S)-3-[(S)-1-(2,4-Difluoro-3-methoxyphenoxy)propyl]pyrrolidine]
28 | ≤ 100 nM | CC[C@@H](Oc1ccc(Cl)cc1C)[C@@H]1CCNC1 [Example 2-60, (R)-3-[(R)-1-(4-Chloro-2-methylphenoxy)propyl]pyrrolidine]

Molecular target: T2, hNET
Test: hNET membrane radioligand binding assay (3H-nisoxetine), Assay 1
Conditions: not given

Row | Compound | Ki
29 | CC[C@H](Oc1c(C)cc(Cl)cc1Cl)[C@H]1CCNC1 [Example 2-43, (S)-3-[(S)-1-(2,4-Dichloro-6-methylphenoxy)propyl]pyrrolidine] | ≤ 10 nM
30 | CC[C@H](Oc1c(F)cc(Cl)cc1F)[C@H]1CCNC1 [Example 2-48, (S)-3-[(S)-1-(4-Chloro-2,6-difluorophenoxy)propyl]pyrrolidine] | ≤ 10 nM
31 | CC[C@H](Oc1c(F)cc(F)cc1F)[C@H]1CCNC1 [Example 2-55, (S)-3-[(S)-1-(2,4,6-Trifluorophenoxy)propyl]pyrrolidine] | ≤ 10 nM
32 | CC[C@H](Oc1ccc(Cl)cc1C)[C@H]1CCNC1 [Example 2-58, (S)-3-[(S)-1-(4-Chloro-2-methylphenoxy)propyl]pyrrolidine] | ≤ 10 nM
33 | CC[C@H](Oc1ccccc1C)[C@H]1CCNC1 [Example 2-62, (S)-3-((S)-1-o-Tolyloxypropyl)pyrrolidine] | ≤ 10 nM
34 | CCc1cc(F)ccc1O[C@@H](CC)[C@H]1CCNC1 [Example 2-66, (S)-3-[(S)-1-(2-Ethyl-4-fluorophenoxy)propyl]pyrrolidine] | ≤ 10 nM

Now from value to compound:

Row | Ki | Compound
35 | ≤ 10 nM | CC[C@H](Oc1c(F)ccc(F)c1Cl)[C@H]1CCNC1 [Example 2-40, (S)-3-[(S)-1-(2-Chloro-3,6-difluorophenoxy)propyl]pyrrolidine]
36 | ≤ 10 nM | CC[C@@H](Oc1c(F)ccc(F)c1Cl)[C@H]1CCNC1 [Example 2-41, (S)-3-[(R)-1-(2-Chloro-3,6-difluorophenoxy)propyl]pyrrolidine]
37 | ≤ 10 nM | CC[C@H](Oc1ccc(Cl)c(F)c1Cl)[C@H]1CCNC1 [Example 2-42, (S)-3-[(S)-1-(2,4-Dichloro-3-fluorophenoxy)propyl]pyrrolidine]
38 | ≤ 10 nM | CC[C@H](Oc1c(F)ccc(OC)c1Cl)[C@H]1CCNC1 [Example 2-44, (S)-3-[(S)-1-(2-Chloro-6-fluoro-3-methoxyphenoxy)propyl]pyrrolidine]
39 | ≤ 10 nM | CC[C@H](Oc1ccc(Cl)cc1F)[C@H]1CCNC1 [Example 2-47, (S)-3-[(S)-1-(4-Chloro-2-fluorophenoxy)propyl]pyrrolidine]
40 | ≤ 10 nM | CC[C@H](Oc1c(F)ccc(Cl)c1F)[C@H]1CCNC1 [Example 2-52, (S)-3-[(S)-1-(3-Chloro-2,6-difluorophenoxy)propyl]pyrrolidine]
41 | ≤ 100 nM | CC[C@H](Oc1ccc(F)c(OC)c1F)[C@H]1CCNC1 [Example 2-57, (S)-3-[(S)-1-(2,4-Difluoro-3-methoxyphenoxy)propyl]pyrrolidine]
42 | ≤ 100 nM | CC[C@@H](Oc1ccc(Cl)cc1C)[C@@H]1CCNC1 [Example 2-60, (R)-3-[(R)-1-(4-Chloro-2-methylphenoxy)propyl]pyrrolidine]

Molecular target: T1, hSERT
Test: hSERT membrane radioligand binding assay (3H-citalopram), Assay 1
Conditions: SERT pKi, hSERT HEK-293 membranes, 1.0 nM 3H-citalopram; values given as lower bounds

Row | Compound | Ki
43 | CC[C@H](Oc1c(C)cc(Cl)cc1Cl)[C@H]1CCNC1 [Example 2-43, (S)-3-[(S)-1-(2,4-Dichloro-6-methylphenoxy)propyl]pyrrolidine] | ≤ 10 nM
44 | CC[C@H](Oc1c(F)cc(Cl)cc1F)[C@H]1CCNC1 [Example 2-48, (S)-3-[(S)-1-(4-Chloro-2,6-difluorophenoxy)propyl]pyrrolidine] | ≤ 10 nM
45 | CC[C@H](Oc1c(F)cc(F)cc1F)[C@H]1CCNC1 [Example 2-55, (S)-3-[(S)-1-(2,4,6-Trifluorophenoxy)propyl]pyrrolidine] | ≤ 10 nM
46 | CC[C@H](Oc1ccc(Cl)cc1C)[C@H]1CCNC1 [Example 2-58, (S)-3-[(S)-1-(4-Chloro-2-methylphenoxy)propyl]pyrrolidine] | ≤ 10 nM
47 | CC[C@H](Oc1ccccc1C)[C@H]1CCNC1 [Example 2-62, (S)-3-((S)-1-o-Tolyloxypropyl)pyrrolidine] | ≤ 10 nM
48 | CCc1cc(F)ccc1O[C@@H](CC)[C@H]1CCNC1 [Example 2-66, (S)-3-[(S)-1-(2-Ethyl-4-fluorophenoxy)propyl]pyrrolidine] | ≤ 10 nM

Further lines, results first:

Row | Ki | Compound
49 | ≤ 10 nM | CC[C@H](Oc1c(F)ccc(F)c1Cl)[C@H]1CCNC1 [Example 2-40, (S)-3-[(S)-1-(2-Chloro-3,6-difluorophenoxy)propyl]pyrrolidine]
50 | ≤ 10 nM | CC[C@@H](Oc1c(F)ccc(F)c1Cl)[C@H]1CCNC1 [Example 2-41, (S)-3-[(R)-1-(2-Chloro-3,6-difluorophenoxy)propyl]pyrrolidine]
51 | ≤ 10 nM | CC[C@H](Oc1ccc(Cl)c(F)c1Cl)[C@H]1CCNC1 [Example 2-42, (S)-3-[(S)-1-(2,4-Dichloro-3-fluorophenoxy)propyl]pyrrolidine]
52 | ≤ 10 nM | CC[C@H](Oc1c(F)ccc(OC)c1Cl)[C@H]1CCNC1 [Example 2-44, (S)-3-[(S)-1-(2-Chloro-6-fluoro-3-methoxyphenoxy)propyl]pyrrolidine]
53 | ≤ 10 nM | CC[C@H](Oc1ccc(Cl)cc1F)[C@H]1CCNC1 [Example 2-47, (S)-3-[(S)-1-(4-Chloro-2-fluorophenoxy)propyl]pyrrolidine]
54 | ≤ 10 nM | CC[C@H](Oc1c(F)ccc(Cl)c1F)[C@H]1CCNC1 [Example 2-52, (S)-3-[(S)-1-(3-Chloro-2,6-difluorophenoxy)propyl]pyrrolidine]
55 | ≤ 10 nM | CC[C@H](Oc1ccc(F)c(OC)c1F)[C@H]1CCNC1 [Example 2-57, (S)-3-[(S)-1-(2,4-Difluoro-3-methoxyphenoxy)propyl]pyrrolidine]
56 | ≤ 10 nM | CC[C@@H](Oc1ccc(Cl)cc1C)[C@@H]1CCNC1 [Example 2-60, (R)-3-[(R)-1-(4-Chloro-2-methylphenoxy)propyl]pyrrolidine]
